Patent US11345694B2, “Antibacterial compounds” (DISCUVA LTD., priority 2017, dated 2022)
pIC50: −log10 of the molar value. ≈ marks a conversion by molar mass, not a printed value. Like-named read-outs stand apart in the source and are kept apart here.

Tests used:
[1] = tested on: Klebsiella pneumoniae ATCC 10031 (KP2); test: MIC broth microdilution; type: cell-based; conditions: for MIC: ATCC10031
Procedure, shortened: (§1)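 CLSI broth microdilution with two-fold compound series, 0.39-200 μM final, at most 2% DMSO. Strains grown in cation-adjusted Müller-Hinton broth at 37 °C, ambient air. MIC taken as lowest concentration inhibiting growth after 20-24 h.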

[2] = tested on: Acinetobacter baumannii ATCC 17978 (AB); test: MIC broth microdilution; type: cell-based; conditions: for MIC: ATCC17978
Procedure, shortened: (§2)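 Broth microdilution following CLSI M07-A10, two-fold serial compound dilutions spanning 0.39-200 μM final, DMSO at most 2% final, in cation-adjusted Müller-Hinton broth at 37° C., ambient air. MIC taken as lowest concentration inhibiting growth after 20-24 h incubation.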

[3] = tested on: Pseudomonas aeruginosa ATCC 33359 (PA); test: MIC broth microdilution; type: cell-based; conditions: for MIC: ATCC33359
Procedure, shortened: as §2

[4] = tested on: Staphylococcus aureus ATCC 35556 (SA); test: MIC broth microdilution; type: cell-based; conditions: for MIC: ATCC35556
Procedure, shortened: as §2

[5] = tested on: Escherichia coli K12 (EC); test: MIC broth microdilution; type: cell-based
Procedure, shortened: as §2

[6] = tested on: human hepatocarcinoma cell line ATCC HB-8065 (HepG2); test: Human cell viability (CellTiter-Glo); type: cell-based; conditions: HepG2 cells, 24 h incubation, CellTiter-Glo luminescence, 0.2-100 μM, read-out: IC50 values against the HepG2 cell line
Procedure, shortened: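 Cytotoxicity was read as CellTiter-Glo luminescence after 24 h compound exposure at 37° C., 5% CO2. Final concentrations spanned 0.2-100 μM in two-fold steps, in 1% FBS MEM with 1% DMSO, on cells plated a day earlier at 20,000/well. IC50 came from 4-parameter logistic regression.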

[7] = tested on: E. coli NCTC 13441 (UPEC); test: MIC broth microdilution; type: cell-based, Escherichia coli; conditions: for MIC: Escherichia coli, NCTC13441
Procedure, shortened: as §2

[8] = tested on: K. pneumoniae NCTC 13438 (KP1); test: MIC broth microdilution; type: cell-based, Klebsiella pneumoniae; conditions: for MIC: Klebsiella pneumoniae, NCTC13438
Procedure, shortened: as §1

Row | Structure (SMILES) | MIC [1] | MIC [2] | MIC [3] | MIC [4] | MIC [5] | pIC50 ([6]; Homo sapiens) | MIC [7] | MIC [8] | MIC KP2 [1] | MIC AB [2] | MIC PA [3] | MIC SA [4] | MIC EC [5] | pIC50 [6] | MIC UPEC [7] | MIC KP1 [8]
1 | Cc1cc(-c2[nH]c(N)nc2-c2ccc3c(c2F)OCCO3)ccn1 [Example 60, 4-(5-Fluoro-2,3-dihydrobenzo[b][1,4]dioxin-6-yl)-5-(2-methylpyridin-4-yl)-1H-imidazol-2-amine] | ≤ 1 µM | > 100 µM | > 100 µM | > 100 µM | 1 to 10 µM (≈ 0.326 to 3.26 µg/mL) | < 4.00 | 1 to 10 µM (≈ 0.326 to 3.26 µg/mL) | 10 to 100 µM (≈ 3.26 to 32.6 µg/mL) |  |  |  |  |  |  |  | 
2 | COC(=O)CCN1CCOc2ccc(-c3nc(N)[nH]c3-c3ccnc(C)c3)cc21 [Example 61, Methyl 3-(6-(2-amino-5-(2-methylpyridin-4-yl)-1H-imidazol-4-yl)-2,3-dihydro-4H-benzo[b][1,4]oxazin-4-yl)propanoate] | ≤ 1 µM | > 100 µM | > 100 µM | > 100 µM | 1 to 10 µM (≈ 0.393 to 3.93 µg/mL) | < 4.00 | 1 to 10 µM (≈ 0.393 to 3.93 µg/mL) | 1 to 10 µM (≈ 0.393 to 3.93 µg/mL) |  |  |  |  |  |  |  | 
3 | CC(=O)N1CCOc2ccc(-c3nc(N)[nH]c3-c3ccnc(C)c3)cc21 [Example 63, 1-(6-(2-Amino-5-(2-methylpyridin-4-yl)-1H-imidazol-4-yl)-2,3-dihydro-4H-benzo[b][1,4]oxazin-4-yl)ethan-1-one] | 1 to 10 µM (≈ 0.349 to 3.49 µg/mL) | > 100 µM | > 100 µM | > 100 µM | 10 to 100 µM (≈ 3.49 to 34.9 µg/mL) | < 4.00 | 10 to 100 µM (≈ 3.49 to 34.9 µg/mL) | > 100 µM |  |  |  |  |  |  |  | 
4 | Cc1cc(-c2[nH]c(N)nc2-c2ccc3c(c2)N(CCO)C(=O)CO3)ccn1 [Example 66, 6-(2-Amino-4-(2-methylpyridin-4-yl)-1H-imidazol-5-yl)-4-(2-hydroxyethyl)-2H-benzo[b][1,4]oxazin-3(4H)-one] | ≤ 1 µM | > 100 µM | > 100 µM | > 100 µM | 1 to 10 µM (≈ 0.365 to 3.65 µg/mL) | < 4.00 | 1 to 10 µM (≈ 0.365 to 3.65 µg/mL) | 10 to 100 µM (≈ 3.65 to 36.5 µg/mL) |  |  |  |  |  |  |  | 
5 | Cc1cc(-c2[nH]c(N)nc2-c2ccc(O)c(O)c2)ccn1 [Example 71, 4-(2-Amino-5-(2-methylpyridin-4-yl)-1H-imidazol-4-yl)benzene-1,2-diol] | 1 to 10 µM (≈ 0.282 to 2.82 µg/mL) | > 100 µM | > 100 µM | > 100 µM | 10 to 100 µM (≈ 2.82 to 28.2 µg/mL) | < 4.00 | 10 to 100 µM (≈ 2.82 to 28.2 µg/mL) | > 100 µM |  |  |  |  |  |  |  | 
6 | CNc1nc(-c2ccc3c(c2)OCCO3)c(-c2ccnc(C)c2)[nH]1 [Example 74, 4-(2,3-dihydrobenzo[b][1,4]dioxin-6-yl)-N-methyl-5-(2-methylpyridin-4-yl)-1H-imidazol-2-amine] | ≤ 1 µM | > 100 µM | > 100 µM | > 100 µM | 1 to 10 µM (≈ 0.322 to 3.22 µg/mL) | < 4.00 | 1 to 10 µM (≈ 0.322 to 3.22 µg/mL) | 10 to 100 µM (≈ 3.22 to 32.2 µg/mL) |  |  |  |  |  |  |  | 
7 | Cc1cc(-c2[nH]c(N(C)C)nc2-c2ccc3c(c2)OCCO3)ccn1 [Example 75, 4-(2,3-Dihydrobenzo[b][1,4]dioxin-6-yl)-N,N-dimethyl-5-(2-methylpyridin-4-yl)-1H-imidazol-2-amine] | 1 to 10 µM (≈ 0.336 to 3.36 µg/mL) | > 100 µM | > 100 µM | > 100 µM | 10 to 100 µM (≈ 3.36 to 33.6 µg/mL) | < 4.00 | 10 to 100 µM (≈ 3.36 to 33.6 µg/mL) | > 100 µM |  |  |  |  |  |  |  | 
8 | Cc1cc(-c2sc(N)nc2-c2ccc3c(c2)OCCO3)ccn1 [Example 80, 4-(2,3-Dihydrobenzo[b][1,4]dioxin-6-yl)-5-(2-methylpyridin-4-yl)thiazol-2-amine] | 1 to 10 µM (≈ 0.325 to 3.25 µg/mL) | > 100 µM | > 100 µM | > 100 µM | > 100 µM | < 4.00 | > 100 µM | > 100 µM |  |  |  |  |  |  |  | 
9 | Cc1cc(-c2[nH]c(=S)[nH]c2-c2ccc3c(c2)OCCO3)ccn1 [Example 81, 4-(2,3-Dihydrobenzo[b][1,4]dioxin-6-yl)-5-(2-methylpyridin-4-yl)-1,3-dihydro-2H-imidazole-2-thione] | ≤ 1 µM | > 100 µM | > 100 µM | > 100 µM | 10 to 100 µM (≈ 3.25 to 32.5 µg/mL) | < 4.00 | 10 to 100 µM (≈ 3.25 to 32.5 µg/mL) | > 100 µM |  |  |  |  |  |  |  | 
10 | Cc1cc(-c2[nH]c(Cl)nc2-c2ccc3c(c2)OCCO3)ccn1 [Example 83, 4-(2-Chloro-4-(2,3-dihydrobenzo[b][1,4]dioxin-6-yl)-1H-imidazol-5-yl)-2-methylpyridine] | ≤ 1 µM | > 100 µM | > 100 µM | > 100 µM | 1 to 10 µM (≈ 0.328 to 3.28 µg/mL) | < 4.00 | 1 to 10 µM (≈ 0.328 to 3.28 µg/mL) | > 100 µM |  |  |  |  |  |  |  | 
11 | CNC(=O)c1nc(-c2ccnc(C)c2)c(-c2ccc3c(c2)OCCO3)[nH]1 [Example 85, 5-(2,3-Dihydrobenzo[b][1,4]dioxin-6-yl)-N-methyl-4-(2-methylpyridin-4-yl)-1H-imidazole-2-carboxamide] | 1 to 10 µM (≈ 0.35 to 3.5 µg/mL) | > 100 µM | > 100 µM | > 100 µM | > 100 µM | < 4.00 | > 100 µM | > 100 µM |  |  |  |  |  |  |  | 
12 | Cc1cc(-c2[nH]c(C(=O)O)nc2-c2ccc3c(c2)OCCO3)ccn1 [Example 86, 4-(2,3-dihydrobenzo[b][1,4]dioxin-6-yl)-5-(2-methylpyridin-4-yl)-1H-imidazole-2-carboxylate] |  |  |  |  |  |  |  |  | B (a MIC of from 1 to 10 is assigned the letter B) | D (a MIC of over 100 is assigned the letter D) | D (a MIC of over 100 is assigned the letter D) | D (a MIC of over 100 is assigned the letter D) | D (a MIC of over 100 is assigned the letter D) | < 4.00 | D (a MIC of over 100 is assigned the letter D) | D (a MIC of over 100 is assigned the letter D)
13 | Cc1cc(-c2[nH]c(CN)nc2-c2ccc3c(c2)OCCO3)ccn1 [Example 87, (4-(2,3-Dihydrobenzo[b][1,4]dioxin-6-yl)-5-(2-methylpyridin-4-yl)-1H-imidazol-2-yl)methanamine] | ≤ 1 µM | > 100 µM | > 100 µM | > 100 µM | 1 to 10 µM (≈ 0.322 to 3.22 µg/mL) | < 4.00 | 1 to 10 µM (≈ 0.322 to 3.22 µg/mL) | 10 to 100 µM (≈ 3.22 to 32.2 µg/mL) |  |  |  |  |  |  |  | 
14 | Cc1cc(-c2nc(N)[nH]c2-c2ccc3c(c2)N(CCN)C(=O)CO3)ccn1 [Example 89, 6-(2-Amino-4-(2-methylpyridin-4-yl)-1H-imidazol-5-yl)-4-(2-aminoethyl)-2H-benzo[b][1,4]oxazin-3(4H)-one] | ≤ 1 µM | > 100 µM | > 100 µM | > 100 µM | 1 to 10 µM (≈ 0.364 to 3.64 µg/mL) | < 4.00 | 1 to 10 µM (≈ 0.364 to 3.64 µg/mL) | 10 to 100 µM (≈ 3.64 to 36.4 µg/mL) |  |  |  |  |  |  |  | 
15 | Cc1cc(-c2nc(N)[nH]c2-c2ccc3c(c2)N(CCO)CCO3)ccn1 [Example 90, 2-(6-(2-Amino-4-(2-methylpyridin-4-yl)-1H-imidazol-5-yl)-2,3-dihydro-4H-benzo[b][1,4]oxazin-4-yl)ethan-1-ol] | ≤ 1 µM | > 100 µM | > 100 µM | > 100 µM | 1 to 10 µM (≈ 0.351 to 3.51 µg/mL) | < 4.00 | ≤ 1 µM | 1 to 10 µM (≈ 0.351 to 3.51 µg/mL) |  |  |  |  |  |  |  | 
16 | Cc1cc(-c2[nH]c(N)nc2-c2ccc3c(c2)N(CCN)CCO3)ccn1 [Example 91, 4-(4-(2-Aminoethyl)-3,4-dihydro-2H-benzo[b][1,4]oxazin-6-yl)-5-(2-methylpyridin-4-yl)-1H-imidazol-2-amine] | ≤ 1 µM | > 100 µM | > 100 µM | > 100 µM | ≤ 1 µM | < 4.00 | ≤ 1 µM | ≤ 1 µM |  |  |  |  |  |  |  | 
17 | Cc1cc(-c2[nH]c(N)nc2-c2ccc3c(c2)N(C2CCCC2)CCO3)ccn1 [Example 94, 4-(4-Cyclopentyl-3,4-dihydro-2H-benzo[b][1,4]oxazin-6-yl)-5-(2-methylpyridin-4-yl)-1H-imidazol-2-amine] | ≤ 1 µM | > 100 µM | > 100 µM | > 100 µM | ≤ 1 µM | 4.00 to 4.60 | ≤ 1 µM | 1 to 10 µM (≈ 0.375 to 3.75 µg/mL) |  |  |  |  |  |  |  | 
